From ChEMBL document CHEMBL6103652, “Niacin Ester Derivative of Brefeldin A as a Potential Dual-Target Arf1/BMX Inhibitor for Bladder Cancer” (J Nat Prod, 2025)

Legend:
[1] = Downregulation of p-BMX expression level in human T24 cells at 0.5 uM incubated for 24 hrs by Western blotting analysis relative to control; format: functional, T-24
[2] = Antitumor activity against mouse MB49 cells implanted in male C57BL/6 mouse model assessed as reduction in tumor weight at 1 mg/kg,iv bid measured after 14 days relative to control; format: functional; set-up: scale not given: the % may be the effect or the level left; conditions: time 14 day
[3] = tested on: HT-29; assay: Antiproliferative activity against human HT-29 cells assessed as inhibition of cell proliferation measured after 72 hrs by MTT assay; format: functional, cell-based; conditions: HT-29, 72 h
[4] = tested on: T-24; assay: Induction in apoptosis in human T24 cells assessed as necrotic cells at 0.5 uM incubated for 48 hrs by Annexin V-FITC staining based flow cytometry analysis (reference value: 1.14 %); format: functional
[5] = tested on: T-24; assay: Induction in apoptosis in human T24 cells assessed as necrotic cells at 0.13 uM incubated for 48 hrs by Annexin V-FITC staining based flow cytometry analysis (reference value: 1.14 %); format: functional
[6] = tested on: Huh-7; assay: Antiproliferative activity against human Huh-7 cells assessed as inhibition of cell proliferation measured after 72 hrs by MTT assay; format: functional, cell-based; conditions: Huh-7, 72 h
[7] = tested on: T-24; assay: Inhibition of cell migration in human T24 cells at 0.50 uM incubated for 12 hrs by scratch assay (reference value: 66 %); format: functional
[8] = tested on: T-24; assay: Induction of cell cycle arrest in human T24 cells assessed as accumulation of cells at G2/M phase at 0.25 uM incubated for 24 hrs by RNase A/Propidium Iodide staining based flow cytometry analysis (reference value: 22.67 %); format: functional
[9] = tested on: T-24; assay: Inhibition of colony formation in human T24 cells at 0.50 uM measured after 10 days by crystal violet staining based analysis relative to control; format: functional; conditions: T-24, 240 h, time 10 day
[10] = molecular target: T1, Cytoplasmic tyrosine-protein kinase BMX (Homo sapiens) (UniProt P51813); assay: Induction of thermal stabilization of BMX in human T24 cells pretreated for 2 hrs followed by pronase addition and measured after 25 mins by DARTS assay; format: cell-based; conditions: dose 0.2-5 mM
T1 sequence (whole entry): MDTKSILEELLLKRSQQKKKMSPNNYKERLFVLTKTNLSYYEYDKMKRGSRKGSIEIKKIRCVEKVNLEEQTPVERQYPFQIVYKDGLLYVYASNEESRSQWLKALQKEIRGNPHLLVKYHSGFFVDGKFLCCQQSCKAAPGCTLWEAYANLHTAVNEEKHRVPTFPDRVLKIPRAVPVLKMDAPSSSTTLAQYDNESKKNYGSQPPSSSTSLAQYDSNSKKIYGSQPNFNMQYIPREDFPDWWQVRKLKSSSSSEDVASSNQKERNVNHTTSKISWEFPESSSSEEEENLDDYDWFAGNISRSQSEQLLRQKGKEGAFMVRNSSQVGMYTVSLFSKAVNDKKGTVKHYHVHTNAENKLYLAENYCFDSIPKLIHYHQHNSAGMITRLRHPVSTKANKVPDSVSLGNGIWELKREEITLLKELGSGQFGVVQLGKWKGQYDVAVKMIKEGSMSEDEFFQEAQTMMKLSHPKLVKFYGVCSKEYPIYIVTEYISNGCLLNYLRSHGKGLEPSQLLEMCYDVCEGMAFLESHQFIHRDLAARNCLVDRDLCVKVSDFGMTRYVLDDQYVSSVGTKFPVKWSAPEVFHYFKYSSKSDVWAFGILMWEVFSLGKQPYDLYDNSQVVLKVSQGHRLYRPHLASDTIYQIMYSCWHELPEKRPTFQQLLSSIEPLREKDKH

[11] = tested on: T-24; assay: Inhibition of cell migration in human T24 cells at 0.25 uM incubated for 24 hrs by scratch assay (reference value: 88 %); format: functional; conditions: T-24, 24 h
[12] = tested on: T-24; assay: Induction in apoptosis in human T24 cells assessed as late apoptotic cells at 0.5 uM incubated for 48 hrs by Annexin V-FITC staining based flow cytometry analysis (reference value: 4.78 %); format: functional
[13] = tested on: T-24; assay: Inhibition of colony formation in human T24 cells at 0.25 uM measured after 10 days by crystal violet staining based analysis; format: functional, cell-based; conditions: time 10.0 day
[14] = Downregulation of p-STAT3 expression level in human T24 cells at 0.5 uM incubated for 24 hrs by Western blotting analysis relative to control; format: functional, T-24
[15] = Downregulation of STAT3 expression level in human T24 cells at 0.25 uM incubated for 24 hrs by Western blotting analysis relative to control; format: functional, T-24
[16] = Volume of distribution at steady state in Sprague-Dawley rat at 5 mg/kg, iv measured upto 24 hrs; format: ADME, organism-based; conditions: in vivo, read-out: Vdss
[17] = Toxicity in male C57BL/6 mouse allografted with mouse MB49 cells assessed as tumor cell necrosis at 1 mg/kg,iv bid measured after 14 days by H and E staining based analysis; format: organism-based; conditions: in vivo, 336 h, time 14 day
[18] = molecular target: T1, Cytoplasmic tyrosine-protein kinase BMX (Homo sapiens); assay: Inhibition of BMX phosphorylation in human T24 cells incubated for 24 hrs by Western blotting analysis; format: cell-based; conditions: dose 0.13-0.5 µM
[19] = Antitumor activity against mouse MB49 cells implanted in male C57BL/6 mouse assessed as reduction in CD133 expression level at 1 mg/kg,iv bid measured after 14 days by immunohistochemical analysis relative to control; format: functional; set-up: scale not given: the % may be the effect or the level left; conditions: time 14 day
[20] = Solubility of the compound in PEG400; format: physicochemical
[21] = tested on: T-24; assay: Induction in apoptosis in human T24 cells assessed as early apoptotic cells at 0.5 uM incubated for 48 hrs by Annexin V-FITC staining based flow cytometry analysis (reference value: 3.64 %); format: functional
[22] = Antitumor activity against mouse MB49 cells implanted in male C57BL/6 mouse assessed as reduction in Ki67 expression level at 1 mg/kg,iv bid measured after 14 days by immunohistochemical analysis relative to control; format: functional; set-up: scale not given: the % may be the effect or the level left; conditions: time 14 day
[23] = tested on: T-24; assay: Antiproliferative activity against human T24 cells assessed as inhibition of cell proliferation at 0.25 uM incubated for 72 hrs by MTT assay relative to control; format: functional
[24] = Solubility of the compound in aqueous saline; format: physicochemical
[25] = molecular target: Signal transducer and activator of transcription 3 (Homo sapiens) (UniProt P40763); assay: Inhibition of STAT3 phosphorylation in human T24 cells incubated for 24 hrs by Western blotting analysis; format: cell-based; conditions: dose 0.13-0.5 µM
[26] = tested on: T-24; assay: Antiproliferative activity against human T24 cells assessed as inhibition of cell proliferation measured after 72 hrs by MTT assay; format: functional, cell-based; conditions: T-24, 72 h
[27] = Toxicity in male C57BL/6 mouse allografted with mouse MB49 cells assessed as adverse effect at 1 mg/kg,iv bid measured after 14 days; format: organism-based; conditions: in vivo, 336 h, time 14 day
[28] = tested on: T-24; assay: Induction of cell cycle arrest in human T24 cells assessed as accumulation of cells at G1 phase at 0.25 uM incubated for 24 hrs by RNase A/Propidium Iodide staining based flow cytometry analysis (reference value: 43.80 %); format: functional
[29] = tested on: T-24; assay: Induction in apoptosis in human T24 cells assessed as late apoptotic cells at 0.13 uM incubated for 48 hrs by Annexin V-FITC staining based flow cytometry analysis (reference value: 4.78 %); format: functional
[30] = tested on: Bel-7402; assay: Antiproliferative activity against human Bel-7402 cells assessed as inhibition of cell proliferation measured after 72 hrs by MTT assay; format: functional, cell-based; conditions: Bel-7402, 72 h

Signal transducer and activator of transcription 3 (Homo sapiens), sequence (P40763 whole entry): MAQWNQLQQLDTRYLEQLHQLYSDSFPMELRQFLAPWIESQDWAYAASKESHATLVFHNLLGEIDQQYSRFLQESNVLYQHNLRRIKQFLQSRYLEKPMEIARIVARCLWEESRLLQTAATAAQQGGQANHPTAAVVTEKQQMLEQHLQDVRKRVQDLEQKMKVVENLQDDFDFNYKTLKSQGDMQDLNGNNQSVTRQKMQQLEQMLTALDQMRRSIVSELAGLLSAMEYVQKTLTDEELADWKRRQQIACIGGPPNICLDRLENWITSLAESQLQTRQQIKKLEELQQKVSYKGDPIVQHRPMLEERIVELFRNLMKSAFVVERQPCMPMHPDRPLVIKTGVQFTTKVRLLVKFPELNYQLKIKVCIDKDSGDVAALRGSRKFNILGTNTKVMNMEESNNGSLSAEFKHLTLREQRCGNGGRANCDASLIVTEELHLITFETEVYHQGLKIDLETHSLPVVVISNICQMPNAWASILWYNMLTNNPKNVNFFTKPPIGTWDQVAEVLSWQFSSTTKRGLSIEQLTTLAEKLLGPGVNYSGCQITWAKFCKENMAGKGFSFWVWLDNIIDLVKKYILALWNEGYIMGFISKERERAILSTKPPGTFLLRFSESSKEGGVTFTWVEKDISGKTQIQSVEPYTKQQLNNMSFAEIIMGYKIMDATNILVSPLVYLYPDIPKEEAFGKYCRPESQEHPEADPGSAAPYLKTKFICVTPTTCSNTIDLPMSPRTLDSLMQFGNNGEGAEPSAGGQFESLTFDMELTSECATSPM

Q: For `C[C@H]1CCC/C=C/[C@@H]2C[C@H](O)C[C@H]2[C@H](OC(=O)c2cccnc2)/C=C/C(=O)O1`, which Activity [1] is on record?
A: 35%

Q: What about the Activity [2] of the same compound?
A: 48%

Q: What about the IC50 [3] of the same compound?
A: 410 nM

Q: What about the Activity [4] of the same compound?
A: 3.49%

Q: What about the Activity [5] of the same compound?
A: 0.91%

Q: And the IC50 [6]?
A: 1000 nM

Q: And the wound closure at 0.5 µM [7]?
A: 13%

Q: And the Activity [8]?
A: 19.43%

Q: And the inhibition at 0.5 µM [9]?
A: 100%

Q: What about the Activity [10] of the same compound?
A: Dose-dependent-effect

Q: What about the wound closure at 0.25 µM [11] of the same compound?
A: 26%

Q: And the Activity [12]?
A: 24.81%

Q: What about the inhibition [13] of the same compound?
A: Active; Entirely Suppressed Clone Formation Was Observed

Q: And the Activity [14]?
A: 55%

Q: And the Activity [15]?
A: 53%

Q: What about the Vd [16] of the same compound?
A: 0.59 L/kg

Q: And the Activity [17]?
A: Non-toxic

Q: What about the inhibition [18] of the same compound?
A: Dose-dependent-effect

Q: And the Activity [19]?
A: 61%

Q: And the solubility [20]?
A: Not_active

Q: And the Activity [21]?
A: 6.11%

Q: What about the Activity [22] of the same compound?
A: 56%

Q: And the inhibition at 0.25 µM [23]?
A: 54%

Q: And the solubility [24]?
A: < 1000 µg/mL

Q: What about the inhibition [25] of the same compound?
A: Dose-dependent-effect

Q: What about the IC50 [26] of the same compound?
A: 220 nM

Q: And the Activity [27]?
A: Non-toxic

Q: What about the Activity [28] of the same compound?
A: 48.88%

Q: What about the Activity [29] of the same compound?
A: 4.41%

Q: And the IC50 [30]?
A: 460 nM
